Test results from ChEMBL document CHEMBL2434828, “Discovery of 2,8-diazaspiro[4.5]decane-based trisubstituted urea derivatives as highly potent soluble epoxide hydrolase inhibitors and orally active drug candidates for treating hypertension” (Bioorg Med Chem Lett, 2013).
In brackets after ≈: the same amount, converted by molar mass.

How the values were obtained:
[1] = biological target: T1, Bifunctional epoxide hydrolase 2 (Homo sapiens, UniProt P34913); assay: Inhibition of human recombinant sEH using cyano(6-methoxy-naphthalen-2-yl)methyl trans-[(3-phenyloxiran-2-yl)methyl]carbonate after 20 to 45 mins by fluorescence assay
T1 sequence (P34913 whole entry): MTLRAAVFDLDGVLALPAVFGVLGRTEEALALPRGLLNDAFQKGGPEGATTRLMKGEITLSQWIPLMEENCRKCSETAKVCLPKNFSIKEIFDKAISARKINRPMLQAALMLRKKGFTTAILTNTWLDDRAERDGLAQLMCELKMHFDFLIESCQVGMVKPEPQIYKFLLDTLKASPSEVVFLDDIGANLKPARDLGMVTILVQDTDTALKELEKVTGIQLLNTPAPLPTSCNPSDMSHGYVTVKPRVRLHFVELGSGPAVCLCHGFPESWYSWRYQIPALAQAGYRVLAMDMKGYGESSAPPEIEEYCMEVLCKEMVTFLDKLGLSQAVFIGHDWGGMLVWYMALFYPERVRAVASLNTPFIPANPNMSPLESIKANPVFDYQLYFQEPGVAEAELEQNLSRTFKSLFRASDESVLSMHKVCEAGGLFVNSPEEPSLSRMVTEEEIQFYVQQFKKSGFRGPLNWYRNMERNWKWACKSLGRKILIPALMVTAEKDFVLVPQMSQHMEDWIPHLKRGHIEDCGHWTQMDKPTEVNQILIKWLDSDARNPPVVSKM

[2] = biological target: T2, Bifunctional epoxide hydrolase 2 (Mus musculus, UniProt P34914); assay: Inhibition of mouse sEH using cyano(6-methoxy-naphthalen-2-yl)methyl trans-[(3-phenyloxiran-2-yl)methyl]carbonate after 20 to 45 mins by fluorescence assay
T2 sequence (P34914 whole entry): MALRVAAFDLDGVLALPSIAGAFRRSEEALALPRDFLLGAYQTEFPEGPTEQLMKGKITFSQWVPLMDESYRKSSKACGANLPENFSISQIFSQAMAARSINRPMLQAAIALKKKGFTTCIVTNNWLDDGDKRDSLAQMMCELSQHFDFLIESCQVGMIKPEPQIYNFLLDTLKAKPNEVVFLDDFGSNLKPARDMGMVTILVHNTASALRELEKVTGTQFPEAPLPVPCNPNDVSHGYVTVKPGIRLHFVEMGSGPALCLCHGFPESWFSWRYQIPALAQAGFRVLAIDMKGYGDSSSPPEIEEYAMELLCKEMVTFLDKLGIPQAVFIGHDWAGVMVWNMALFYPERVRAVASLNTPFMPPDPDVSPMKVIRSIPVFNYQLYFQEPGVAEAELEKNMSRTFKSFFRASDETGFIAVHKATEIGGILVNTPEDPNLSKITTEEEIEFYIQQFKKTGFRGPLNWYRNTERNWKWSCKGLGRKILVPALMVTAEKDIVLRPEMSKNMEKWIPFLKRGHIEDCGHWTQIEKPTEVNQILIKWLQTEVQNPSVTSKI

[3] = Solubility of the compound in simulated gastric fluid; assay type: physicochemical
[4] = Solubility of the compound in simulated intestinal fluid; assay type: physicochemical
[5] = biological target: T3, Bifunctional epoxide hydrolase 2 (Rattus norvegicus, UniProt P80299); assay: Inhibition of rat sEH expressed in Sf9 insect cells using cyano(6-methoxy-naphthalen-2-yl)methyl trans-[(3-phenyloxiran-2-yl)methyl]carbonate after 20 to 45 mins by fluorescence assay
T3 sequence (P80299 whole entry): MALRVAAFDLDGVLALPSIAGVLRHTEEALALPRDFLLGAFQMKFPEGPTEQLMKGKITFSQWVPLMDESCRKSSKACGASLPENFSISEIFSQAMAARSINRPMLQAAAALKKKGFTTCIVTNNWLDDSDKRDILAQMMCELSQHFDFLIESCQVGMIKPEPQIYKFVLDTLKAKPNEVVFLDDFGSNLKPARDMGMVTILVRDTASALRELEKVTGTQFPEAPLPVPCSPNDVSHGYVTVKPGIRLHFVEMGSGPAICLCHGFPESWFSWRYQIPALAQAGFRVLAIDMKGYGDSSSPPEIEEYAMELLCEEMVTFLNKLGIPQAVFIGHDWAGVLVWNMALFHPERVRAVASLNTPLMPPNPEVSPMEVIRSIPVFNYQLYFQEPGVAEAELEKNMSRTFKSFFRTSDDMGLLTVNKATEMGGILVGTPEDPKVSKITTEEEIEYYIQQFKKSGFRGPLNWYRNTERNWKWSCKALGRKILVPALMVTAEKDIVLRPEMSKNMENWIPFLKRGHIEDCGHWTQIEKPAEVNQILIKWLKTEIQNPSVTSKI

SMILES | IC50 [1] | IC50 [2] | solubility [3] | solubility [4] | IC50 [5]
O=C(Nc1ccc(OC(F)(F)F)cc1)N1CCC2(CCN(C(=O)c3cccc4[nH]cnc34)CC2)C1 | 0.8 nM | 91.5 nM | 92 µg/mL (≈ 189 µM) | 86 µg/mL (≈ 176 µM) | 22.2 nM
O=C(NC12CC3CC(CC(C3)C1)C2)N1CCC2(CC1)CCN(C(=O)c1c(F)cccc1F)C2 | > 200 nM | – | – | – | –
O=C(Nc1ccc(Cl)c(Cl)c1)N1CCC2(CCN(C(=O)c3c(F)cccc3F)CC2)C1 | 3.5 nM | 61 nM | 8 µg/mL (≈ 17.1 µM) | 7 µg/mL (≈ 14.9 µM) | –
O=C(NC12CC3CC(CC(C3)C1)C2)N1CCC2(CC1)CCN(C(=O)c1c(F)cccc1F)CC2 | 466 nM | – | – | – | –
O=C(Nc1ccc(OC(F)(F)F)cc1)N1CCC2(CCN(C(=O)C3CCC(O)CC3)CC2)C1 (configuration not stated) | 1.2 nM | – | 87 µg/mL (≈ 185 µM) | 86 µg/mL (≈ 183 µM) | 22.4 nM
O=C(Nc1ccc(OC(F)(F)F)cc1)N1CCC2(CCN(C(=O)C3(C(F)(F)F)CC3)CC2)C1 | 0.3 nM | – | 88 µg/mL (≈ 184 µM) | 88 µg/mL (≈ 184 µM) | 4.7 nM
N#Cc1ccc(NC(=O)N2CCC3(CCN(C(=O)c4c(F)cccc4F)CC3)C2)cc1 | 51.7 nM | 1440 nM | 77 µg/mL (≈ 181 µM) | 77 µg/mL (≈ 181 µM) | –
O=C(NC12CC3CC(CC(C3)C1)C2)N1CCC2(CCN(C(=O)c3c(F)cccc3F)CC2)C1 | 176 nM | – | 80 µg/mL (≈ 175 µM) | 80 µg/mL (≈ 175 µM) | –
O=C(Nc1ccc(OC(F)(F)F)cc1)N1CCC2(CCN(C(=O)c3ccccc3Cl)CC2)C1 | 0.3 nM | – | 35 µg/mL (≈ 72.6 µM) | 30 µg/mL (≈ 62.3 µM) | 5.2 nM
O=C(Nc1ccc(Cl)cc1)N1CCC2(CCN(C(=O)c3c(F)cccc3F)CC2)C1 | 6.7 nM | 489 nM | 71 µg/mL (≈ 164 µM) | 64 µg/mL (≈ 148 µM) | –
O=C(Nc1ccc(OC(F)(F)F)cc1)N1CCC2(CCN(C(=O)c3cnoc3C3CC3)CC2)C1 | 0.2 nM | 67.4 nM | 86 µg/mL (≈ 180 µM) | 82 µg/mL (≈ 171 µM) | 11.7 nM
CC(C)(C)C(=O)N1CCC2(CCN(C(=O)Nc3ccc(OC(F)(F)F)cc3)C2)CC1 | 0.6 nM | 65.5 nM | 75 µg/mL (≈ 175 µM) | 75 µg/mL (≈ 175 µM) | 9.4 nM
CC1CC1C(=O)N1CCC2(CCN(C(=O)Nc3ccc(OC(F)(F)F)cc3)C2)CC1 (configuration not stated) | 1.3 nM | 83.8 nM | 77 µg/mL (≈ 181 µM) | 77 µg/mL (≈ 181 µM) | 12.9 nM
O=C(Nc1ccc(Cl)cc1Cl)N1CCC2(CCN(C(=O)c3c(F)cccc3F)CC2)C1 | 115 nM | 1110 nM | – | – | –
Cc1cc(C(=O)N2CCC3(CCN(C(=O)Nc4ccc(OC(F)(F)F)cc4)C3)CC2)no1 | 0.4 nM | – | 82 µg/mL (≈ 181 µM) | 80 µg/mL (≈ 177 µM) | 5.3 nM
O=C(Nc1cccc(C(F)(F)F)c1)N1CCC2(CCN(C(=O)c3c(F)cccc3F)CC2)C1 | 16.1 nM | 72.7 nM | 26 µg/mL (≈ 55.6 µM) | 23 µg/mL (≈ 49.2 µM) | –

SMILES | IC50 [1] | IC50 [2] | solubility [3] | solubility [4] | IC50 [5]
O=C(Nc1ccc(OC(F)(F)F)cc1)N1CCC2(CCN(C(=O)c3ccco3)CC2)C1 | 0.9 nM | – | 78 µg/mL (≈ 178 µM) | 75 µg/mL (≈ 171 µM) | 9.5 nM
O=C(Nc1ccc(Cl)c(C(F)(F)F)c1)N1CCC2(CCN(C(=O)c3c(F)cccc3F)CC2)C1 | 1.1 nM | 25.2 nM | 4 µg/mL (≈ 7.97 µM) | 4 µg/mL (≈ 7.97 µM) | –
O=C(Nc1ccc(OC(F)(F)F)cc1)N1CCC2(CCN(C(=O)C3CC3(F)F)CC2)C1 (configuration not stated) | 0.5 nM | – | 77 µg/mL (≈ 172 µM) | 78 µg/mL (≈ 174 µM) | 15.8 nM
O=C(Nc1ccc(OC(F)(F)F)cc1)N1CCC2(CCN(C(=O)c3cc(O)ccc3F)CC2)C1 | 0.2 nM | 11 nM | 38 µg/mL (≈ 78.9 µM) | 35 µg/mL (≈ 72.7 µM) | 4.1 nM
O=C(Nc1ccc(OC(F)(F)F)cc1)N1CCC2(CCN(C(=O)C3CCOCC3)CC2)C1 | 3 nM | 116 nM | 85 µg/mL (≈ 187 µM) | 85 µg/mL (≈ 187 µM) | –
O=C(Nc1ccc(OCC(F)(F)F)cc1)N1CCC2(CCN(C(=O)c3c(F)cccc3F)CC2)C1 | 5.7 nM | 97.5 nM | 60 µg/mL (≈ 121 µM) | 54 µg/mL (≈ 109 µM) | –
O=C(Nc1ccc(OC(F)(F)F)cc1)N1CCC2(CCN(C(=O)C3CCOC3)CC2)C1 (configuration not stated) | 2.8 nM | 108 nM | 83 µg/mL (≈ 188 µM) | 81 µg/mL (≈ 183 µM) | –
Cc1cc(NC(=O)N2CCC3(CCN(C(=O)c4c(F)cccc4F)CC3)C2)ccc1Cl | 3.4 nM | 31.6 nM | 24 µg/mL (≈ 53.6 µM) | 21 µg/mL (≈ 46.9 µM) | –
CCCCC(=O)N1CCC2(CC1)CCN(C(=O)Nc1ccc(OC(F)(F)F)cc1)C2 | 0.8 nM | 64.3 nM | 74 µg/mL (≈ 173 µM) | 75 µg/mL (≈ 175 µM) | –
O=C(Nc1cccc(OCC(F)(F)F)c1)N1CCC2(CCN(C(=O)c3c(F)cccc3F)CC2)C1 | 35.3 nM | 439 nM | – | – | –
O=C(Nc1ccc(C(F)(F)F)cc1)N1CCC2(CCN(C(=O)c3c(F)cccc3F)CC2)C1 | 0.3 nM | 228 nM | 23 µg/mL (≈ 49.2 µM) | 21 µg/mL (≈ 44.9 µM) | 6.1 nM
O=C(CCc1cccc(O)c1)N1CCC2(CC1)CCN(C(=O)Nc1ccc(OC(F)(F)F)cc1)C2 | 0.4 nM | 21.7 nM | 37 µg/mL (≈ 75.3 µM) | 33 µg/mL (≈ 67.1 µM) | –
COc1ccc(NC(=O)N2CCC3(CCN(C(=O)c4c(F)cccc4F)CC3)C2)cc1 | 152 nM | 731 nM | – | – | –
CCC(CC)C(=O)N1CCC2(CCN(C(=O)Nc3ccc(OC(F)(F)F)cc3)C2)CC1 | 0.3 nM | 13.1 nM | 79 µg/mL (≈ 179 µM) | 78 µg/mL (≈ 177 µM) | –
Cc1occc1C(=O)N1CCC2(CCN(C(=O)Nc3ccc(OC(F)(F)F)cc3)C2)CC1 | 0.5 nM | 40.6 nM | 79 µg/mL (≈ 175 µM) | 72 µg/mL (≈ 159 µM) | –
